Experimental data as given in US20210045385A1, “PYRIDAZINONE-SUBSTITUTED KETOXIMES AS HERBICIDES” (FMC Corporation, priority 2018, published 2021).

Key:
Assay type in all cases: in vivo
[1] = system: foxtail, giant (giant foxtail, Setaria faberii); assay: Test A preemergence, visual plant response rating; conditions: for Foxtail, Giant plant response rating: 125 g ai/ha, preemergence, 0 to 100 scale, 0 no effect, 100 complete control; for Foxtail, Giant plant response rating (0 to 100 scale): 500 g ai/ha Preemergence, approx. 10 days
Procedure, shortened: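 Preemergence: seeds in loam/sand blend given directed soil spray of compound in non-phytotoxic solvent with surfactant. Postemergence: plants 2–10 cm, one- to two-leaf stage, sprayed with same formulation. Visual injury rated vs untreated controls after ~10 days in greenhouse, 0 (no effect) to 100 (complete control).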

[2] = system: Italian ryegrass (Lolium multiflorum); assay: Test A preemergence, visual plant response rating; conditions: for Ryegrass, Italian plant response rating: 125 g ai/ha, preemergence, 0 to 100 scale, 0 no effect, 100 complete control; for Ryegrass, Italian plant response rating (0 to 100 scale): 500 g ai/ha Preemergence, approx. 10 days
Procedure, shortened: (§1)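 Ratings 0–100 (100 = complete control), visual, vs untreated controls at ~10 days. Application pre- or postemergence; solvent mixture with surfactant; loam/sand medium.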

[3] = system: ragweed (common ragweed, Ambrosia elatior); assay: Test A preemergence, visual plant response rating; conditions: for Ragweed plant response rating: 125 g ai/ha, preemergence, 0 to 100 scale, 0 no effect, 100 complete control; for Ragweed plant response rating (0 to 100 scale): 500 g ai/ha Preemergence, approx. 10 days
Procedure, shortened: as §1

[4] = system: pigweed (Amaranthus retroflexus); assay: Test A preemergence, visual plant response rating; conditions: for Pigweed plant response rating: 125 g ai/ha, preemergence, 0 to 100 scale, 0 no effect, 100 complete control; for Pigweed plant response rating (0 to 100 scale): 500 g ai/ha Preemergence, approx. 10 days
Procedure, shortened: as §1

[5] = system: barnyardgrass (Echinochloa crus-galli); assay: Test A preemergence, visual plant response rating; conditions: for Barnyardgrass plant response rating: 125 g ai/ha, preemergence, 0 to 100 scale, 0 no effect, 100 complete control; for Barnyardgrass plant response rating (0 to 100 scale): 500 g ai/ha Preemergence, approx. 10 days
Procedure, shortened: as §1

[6] = system: kochia (Kochia scoparia); assay: Test A preemergence, visual plant response rating; conditions: for Kochia plant response rating: 125 g ai/ha, preemergence, 0 to 100 scale, 0 no effect, 100 complete control; for Kochia plant response rating (0 to 100 scale): 500 g ai/ha Preemergence, approx. 10 days
Procedure, shortened: as §1

[7] = system: foxtail, giant (giant foxtail, Setaria faberii); assay: Test A postemergence, visual plant response rating; conditions: for Foxtail, Giant plant response rating (0 to 100 scale): 500 g ai/ha, postemergence, 0 is no effect, 100 is complete control; for Foxtail, Giant plant response rating: Postemergence, 125 g ai/ha, 0 to 100 scale (0 no effect, 100 complete control)
Procedure, shortened: as §1

[8] = system: galium (catchweed bedstraw, Galium aparine); assay: Test A postemergence, visual plant response rating; conditions: for Galium plant response rating (0 to 100 scale): 500 g ai/ha, postemergence, 0 is no effect, 100 is complete control; for Galium plant response rating: Postemergence, 125 g ai/ha, 0 to 100 scale (0 no effect, 100 complete control)
Procedure, shortened: as §1

[9] = system: Italian ryegrass (Lolium multiflorum); assay: Test A postemergence, visual plant response rating; conditions: for Ryegrass, Italian plant response rating (0 to 100 scale): 500 g ai/ha, postemergence, 0 is no effect, 100 is complete control; for Ryegrass, Italian plant response rating: Postemergence, 125 g ai/ha, 0 to 100 scale (0 no effect, 100 complete control)
Procedure, shortened: as §1

[10] = system: ragweed (common ragweed, Ambrosia elatior); assay: Test A postemergence, visual plant response rating; conditions: for Ragweed plant response rating (0 to 100 scale): 500 g ai/ha, postemergence, 0 is no effect, 100 is complete control; for Ragweed plant response rating: Postemergence, 125 g ai/ha, 0 to 100 scale (0 no effect, 100 complete control)
Procedure, shortened: as §1

[11] = system: pigweed (Amaranthus retroflexus); assay: Test A postemergence, visual plant response rating; conditions: for Pigweed plant response rating (0 to 100 scale): 500 g ai/ha, postemergence, 0 is no effect, 100 is complete control; for Pigweed plant response rating: Postemergence, 125 g ai/ha, 0 to 100 scale (0 no effect, 100 complete control)
Procedure, shortened: as §1

[12] = system: blackgrass (Alopecurus myosuroides); assay: Test A postemergence, visual plant response rating; conditions: for Blackgrass plant response rating (0 to 100 scale): 500 g ai/ha, postemergence, 0 is no effect, 100 is complete control; for Blackgrass plant response rating: Postemergence, 125 g ai/ha, 0 to 100 scale (0 no effect, 100 complete control)
Procedure, shortened: as §1

[13] = system: wheat (Triticum aestivum); assay: Test A postemergence, visual plant response rating; conditions: for Wheat plant response rating (0 to 100 scale): 500 g ai/ha, postemergence, 0 is no effect, 100 is complete control; for Wheat plant response rating: Postemergence, 125 g ai/ha, 0 to 100 scale (0 no effect, 100 complete control)
Procedure, shortened: as §1

[14] = system: barnyardgrass (Echinochloa crus-galli); assay: Test A postemergence, visual plant response rating; conditions: for Barnyardgrass plant response rating (0 to 100 scale): 500 g ai/ha, postemergence, 0 is no effect, 100 is complete control; for Barnyardgrass plant response rating: Postemergence, 125 g ai/ha, 0 to 100 scale (0 no effect, 100 complete control)
Procedure, shortened: as §1

[15] = system: corn (Zea mays); assay: Test A postemergence, visual plant response rating; conditions: for Corn plant response rating (0 to 100 scale): 500 g ai/ha, postemergence, 0 is no effect, 100 is complete control; for Corn plant response rating: Postemergence, 125 g ai/ha, 0 to 100 scale (0 no effect, 100 complete control)
Procedure, shortened: as §1

[16] = system: kochia (Kochia scoparia); assay: Test A postemergence, visual plant response rating; conditions: for Kochia plant response rating (0 to 100 scale): 500 g ai/ha, postemergence, 0 is no effect, 100 is complete control; for Kochia plant response rating: Postemergence, 125 g ai/ha, 0 to 100 scale (0 no effect, 100 complete control)
Procedure, shortened: as §1

[17] = system: sedge, umbrella (small-flower umbrella sedge, Cyperus difformis); assay: Test B flooded paddy test, visual plant response rating; conditions: 250 g ai/ha, Flood, applied to paddy water, 2-leaf stage, evaluated after 13 to 15 days
Procedure, shortened: (§2)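 Flooded-pot treatment: water 3 cm over the soil, chemical delivered into that water, depth unchanged for the duration. Assessed by eye versus controls following 13–15 greenhouse days; plants were at 2 leaves when dosed.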

[18] = system: ducksalad (Heteranhera limosa); assay: as above; conditions: 250 g ai/ha, Flood, applied to paddy water, 2-leaf stage, evaluated after 13 to 15 days
Procedure, shortened: as §2

[19] = system: rice (Oryza sativa); assay: as above; conditions: 250 g ai/ha, Flood, applied to paddy water, 2-leaf stage, evaluated after 13 to 15 days
Procedure, shortened: as §2

[20] = system: barnyardgrass (Echinochloa crus-galli); assay: as above; conditions: 250 g ai/ha, Flood, applied to paddy water, 2-leaf stage, evaluated after 13 to 15 days
Procedure, shortened: as §2

CON=C(c1c(O)c(C)nn(C)c1=O)c1cccc2ccsc12 (single isomer, unassigned) [Compound 47]
Foxtail, Giant plant response rating [1]: 20
Foxtail, Giant plant response rating (0 to 100 scale) [1]: 90
Ryegrass, Italian plant response rating [2]: 10
Ryegrass, Italian plant response rating (0 to 100 scale) [2]: 70
Ragweed plant response rating [3]: 100
Ragweed plant response rating (0 to 100 scale) [3]: 100
Pigweed plant response rating [4]: 20
Pigweed plant response rating (0 to 100 scale) [4]: 80
Barnyardgrass plant response rating [5]: 0
Barnyardgrass plant response rating (0 to 100 scale) [5]: 50
Kochia plant response rating [6]: 0
Kochia plant response rating (0 to 100 scale) [6]: 90
Foxtail, Giant plant response rating (0 to 100 scale) [7]: 70
Foxtail, Giant plant response rating [7]: 30
Galium plant response rating (0 to 100 scale) [8]: 100
Galium plant response rating [8]: 70
Ryegrass, Italian plant response rating (0 to 100 scale) [9]: 70
Ryegrass, Italian plant response rating [9]: 0
Ragweed plant response rating (0 to 100 scale) [10]: 90
Ragweed plant response rating [10]: 80
Pigweed plant response rating (0 to 100 scale) [11]: 90
Pigweed plant response rating [11]: 60
Blackgrass plant response rating (0 to 100 scale) [12]: 30
Blackgrass plant response rating [12]: 20
Wheat plant response rating (0 to 100 scale) [13]: 0
Wheat plant response rating [13]: 0
Barnyardgrass plant response rating (0 to 100 scale) [14]: 20
Barnyardgrass plant response rating [14]: 30
Corn plant response rating (0 to 100 scale) [15]: 20
Corn plant response rating [15]: 0
Kochia plant response rating (0 to 100 scale) [16]: 30
Kochia plant response rating [16]: 10
Plant response rating, Sedge, Umbrella (0 to 100 scale, 0 is no effect, 100 is complete control) [17]: 0
Plant response rating, Ducksalad (0 to 100 scale, 0 is no effect, 100 is complete control) [18]: 0
Plant response rating, Rice (0 to 100 scale, 0 is no effect, 100 is complete control) [19]: 0
Plant response rating, Barnyardgrass (0 to 100 scale, 0 is no effect, 100 is complete control) [20]: 0

CON=C(c1c(O)c(C)nn(C)c1=O)c1ccc(C)c2ccccc12 [Compound 131]
Foxtail, Giant plant response rating [1]: 60
Foxtail, Giant plant response rating (0 to 100 scale) [1]: 70
Ryegrass, Italian plant response rating [2]: 0
Ryegrass, Italian plant response rating (0 to 100 scale) [2]: 0
Ragweed plant response rating [3]: 60
Ragweed plant response rating (0 to 100 scale) [3]: 80
Pigweed plant response rating [4]: 0
Pigweed plant response rating (0 to 100 scale) [4]: 0
Barnyardgrass plant response rating [5]: 0
Barnyardgrass plant response rating (0 to 100 scale) [5]: 60
Kochia plant response rating [6]: 0
Kochia plant response rating (0 to 100 scale) [6]: 20
Foxtail, Giant plant response rating (0 to 100 scale) [7]: 50
Foxtail, Giant plant response rating [7]: 10
Galium plant response rating (0 to 100 scale) [8]: 80
Galium plant response rating [8]: 80
Ryegrass, Italian plant response rating (0 to 100 scale) [9]: 10
Ryegrass, Italian plant response rating [9]: 0
Ragweed plant response rating (0 to 100 scale) [10]: 80
Ragweed plant response rating [10]: 80
Pigweed plant response rating (0 to 100 scale) [11]: 10
Pigweed plant response rating [11]: 0
Blackgrass plant response rating (0 to 100 scale) [12]: 50
Blackgrass plant response rating [12]: 30
Wheat plant response rating (0 to 100 scale) [13]: 0
Wheat plant response rating [13]: 0
Barnyardgrass plant response rating (0 to 100 scale) [14]: 50
Barnyardgrass plant response rating [14]: 20
Corn plant response rating (0 to 100 scale) [15]: 20
Corn plant response rating [15]: 0
Kochia plant response rating (0 to 100 scale) [16]: 30
Kochia plant response rating [16]: 10
Plant response rating, Sedge, Umbrella (0 to 100 scale, 0 is no effect, 100 is complete control) [17]: 0
Plant response rating, Ducksalad (0 to 100 scale, 0 is no effect, 100 is complete control) [18]: 0
Plant response rating, Rice (0 to 100 scale, 0 is no effect, 100 is complete control) [19]: 0
Plant response rating, Barnyardgrass (0 to 100 scale, 0 is no effect, 100 is complete control) [20]: 0

CO/N=C(\c1sccc1C)c1c(O)c(C)nn(C)c1=O [Compound 42]
Foxtail, Giant plant response rating [1]: 0
Foxtail, Giant plant response rating (0 to 100 scale) [1]: 0
Ryegrass, Italian plant response rating [2]: 0
Ryegrass, Italian plant response rating (0 to 100 scale) [2]: 20
Ragweed plant response rating [3]: 60
Ragweed plant response rating (0 to 100 scale) [3]: 80
Pigweed plant response rating [4]: 0
Pigweed plant response rating (0 to 100 scale) [4]: 20
Barnyardgrass plant response rating [5]: 0
Barnyardgrass plant response rating (0 to 100 scale) [5]: 0
Kochia plant response rating [6]: 0
Kochia plant response rating (0 to 100 scale) [6]: 10
Foxtail, Giant plant response rating (0 to 100 scale) [7]: 10
Foxtail, Giant plant response rating [7]: 0
Galium plant response rating (0 to 100 scale) [8]: 60
Galium plant response rating [8]: 70
Ryegrass, Italian plant response rating (0 to 100 scale) [9]: 70
Ryegrass, Italian plant response rating [9]: 50
Ragweed plant response rating (0 to 100 scale) [10]: 50
Ragweed plant response rating [10]: 40
Pigweed plant response rating (0 to 100 scale) [11]: 80
Pigweed plant response rating [11]: 60
Blackgrass plant response rating (0 to 100 scale) [12]: 0
Blackgrass plant response rating [12]: 0
Wheat plant response rating (0 to 100 scale) [13]: 0
Wheat plant response rating [13]: 0
Barnyardgrass plant response rating (0 to 100 scale) [14]: 10
Barnyardgrass plant response rating [14]: 0
Corn plant response rating (0 to 100 scale) [15]: 0
Corn plant response rating [15]: 0
Kochia plant response rating (0 to 100 scale) [16]: 50
Kochia plant response rating [16]: 20
Plant response rating, Sedge, Umbrella (0 to 100 scale, 0 is no effect, 100 is complete control) [17]: 20
Plant response rating, Ducksalad (0 to 100 scale, 0 is no effect, 100 is complete control) [18]: 20
Plant response rating, Rice (0 to 100 scale, 0 is no effect, 100 is complete control) [19]: 10
Plant response rating, Barnyardgrass (0 to 100 scale, 0 is no effect, 100 is complete control) [20]: 15
